Reference: patent publication US7081256B2, “Quinolinone derivative pharmaceutical compositon and production method therefor” (Dainippon Ink and Chemicals, Inc., priority 2001, dated 2006)
Read-outs that look alike come from different tables or passages of the source. Each block holds one compound with its values, some of them ahead of it.

What was measured:
[1] = Measurement of particle size distribution (AEROSIZER); format: physicochemical; conditions: for Average particle diameter: mass median aerodynamic diameter
Procedure: As used herein, the expression “quinolinone derivative is in the form of particles, which have an average particle diameter of 0.5 to 10 μm and such a particle size distribution that particles having a particle diameter of 15 μm or less account for 90% or more of the totality of the particles” means that a mass median aerodynamic diameter in the volume-basis distribution obtained, when the particle size distribution of the quinolinone derivative is measured by an aerodynamic flight time type dry particle size distribution measuring apparatus (AEROSIZER: Central Scientific Commerce, Inc.), is within a range from 0.5 to 10 μm and the particles have such a particle size distribution that particles having a particle diameter of 15 μm or less account for 90% or more of the totality of the particles.
(§1) • Measurement of particle size distribution: The particle size distribution was automatically measured by AEROSIZER (manufactured by Central Scientific Commerce, Inc.). • DSC method: Using DSC7 (manufactured by Perkin Elmer Co.), the measurement was conducted at a temperature within a range from 25 to 250° C. under the conditions of a heating rate of 20° C./min. by a normal method.

[2] = Differential scanning calorimetry (DSC); format: physicochemical; conditions: for DSC Fusion enthalpy ΔH: 25 to 250° C., heating rate 20° C./min.
Text: Furthermore, the quinolinone derivative used in the present invention has a fusion enthalpy (ΔH) of 30 J/g or more, and preferably 35 J/g or more. […] As used herein, the term “fusion enthalpy” refers to a value obtained from an endothermic peak due to fusion of the quinolinone derivative crystal in differential scanning calorimetry (DSC) and is an index of the crystallinity.
as §1

[3] = Dissolution test, paddle method, 50 rpm, 0.5% sodium lauryl sulfate; format: physicochemical; conditions: paddle 50 rpm, compared with the non-ground product
Procedure: Furthermore, dissolution properties of these quinolinone derivatives were evaluated by the dissolution test (paddle method). The results are shown in FIG. 2. • Powder X-ray diffraction method: Using RINT-ULTIMA (manufactured by Rigaku Denki Kogyo Co., Ltd.), the measurement was conducted at a diffraction angle within a range from 5 to 40° under the conditions of Cu—Kα rays, 40 KV and 30 mA by the normal method. • Dissolution test method: According to the second method (paddle method) of the dissolution test method of The Pharmacopoeia of Japan, Fourteenth Edition, the measurement was conducted under the conditions of a paddle rotational speed of 50 rpm using 0.5% sodium lauryl sulfate as a test liquid.
(§2) According to the disintegration test of The Pharmacopoeia of Japan, Fourteenth Edition, the disintegration time of the resulting tablets was measured by using water as a test liquid (n=3). […]
as §2, §2

[4] = dog, in vivo, po, 10 mg/kg
Procedure: After oral administration, 30 ml of distilled water was orally administered. After oral administration, 2.5 ml of blood was collected from the antebrachial vein over time and was then centrifuged to obtain blood plasma. After adding the one-fold amount of acetonitrile to blood serum to remove protein, the amounts of quinolinone derivative and its metabolite were determined by using HPLC.
From the quantitatively determined values of the quinolinone derivative and its metabolite immediately after collecting blood, an average value of a maximum concentration in blood (Cmax) and an average value of an area under a curve of concentration in blood vs time (AUC) were determined.

Proportion (%) of particles having a particle diameter of 15 μm or less based on the totality of the particles [1]: ≥ 0.6%
Proportion (%) of particles having a particle diameter of 15 μm or less based on the totality of the particles ([1]; listed as (B)): 0.6%
Average particle diameter [1]: 33.3 μm
Average particle diameter ([1]; listed as (B)): 33.3 μm
DSC Fusion enthalpy ΔH [2]: ≥ 52.7 J/g
DSC Fusion enthalpy ΔH ([2]; listed as (B)): 52.7 J/g
Compound: CCCCCCCCOc1c(O)c2ccc(NC(=O)/C=C/c3cc(OC)c(O)c(OC)c3)cc2n(C)c1=O [quinolinone derivative (B), 7-(3,5-dimethoxy-4-hydroxycinnamoylamino)-3-octyloxy-4-hydroxy-1-methyl-2(1H)-quinoline]

Proportion (%) of particles having a particle diameter of 15 μm or less based on the totality of the particles ([1]; listed as (B-1)): 95%
Average particle diameter ([1]; listed as (B-1)): 6.6 μm
DSC Fusion enthalpy ΔH ([2]; listed as (B-1)): 51.6 J/g
AUC increase as compared with the non-ground product [4]: 8.7 times
Cmax increase as compared with the non-ground product [4]: 9 times
Compound: CCCCCCCCOc1c(O)c2ccc(NC(=O)/C=C/c3cc(OC)c(O)c(OC)c3)cc2n(C)c1=O [quinolinone derivative (B-1), 7-(3,5-dimethoxy-4-hydroxycinnamoylamino)-3-octyloxy-4-hydroxy-1-methyl-2(1H)-quinoline]

The next lines start with the compound.

Compound: CCCCCCCCOc1c(O)c2ccc(NC(=O)/C=C/c3cc(OC)c(O)c(OC)c3)cc2n(C)c1=O [quinolinone derivative (A), 7-(3,5-dimethoxy-4-hydroxycinnamoylamino)-3-octyloxy-4-hydroxy-1-methyl-2(1H)-quinoline]
Proportion (%) of particles having a particle diameter of 15 μm or less based on the totality of the particles [1]: ≥ 9.9%
Proportion (%) of particles having a particle diameter of 15 μm or less based on the totality of the particles ([1]; listed as (A)): 9.9%
Average particle diameter [1]: 25.3 μm
Average particle diameter ([1]; listed as (A)): 25.3 μm
DSC Fusion enthalpy ΔH [2]: ≥ 49.9 J/g
DSC Fusion enthalpy ΔH ([2]; listed as (A)): 49.9 J/g

Compound: CCCCCCCCOc1c(O)c2ccc(NC(=O)/C=C/c3cc(OC)c(O)c(OC)c3)cc2n(C)c1=O [quinolinone derivative (A-1), 7-(3,5-dimethoxy-4-hydroxycinnamoylamino)-3-octyloxy-4-hydroxy-1-methyl-2(1H)-quinoline]
Proportion (%) of particles having a particle diameter of 15 μm or less based on the totality of the particles ([1]; listed as (A-1)): 100%
Average particle diameter ([1]; listed as (A-1)): 4.5 μm
DSC Fusion enthalpy ΔH ([2]; listed as (A-1)): 47.7 J/g
dissolution rate (FIG. 2) [3]: drastically increased

Compound: CCCCCCCCOc1c(O)c2ccc(NC(=O)/C=C/c3cc(OC)c(O)c(OC)c3)cc2n(C)c1=O [Comparative Example 2, 7-(3,5-dimethoxy-4-hydroxycinnamoylamino)-3-octyloxy-4-hydroxy-1-methyl-2(1H)-quinoline]
Solid state by DSC (endothermic peak of β-type crystal) ([2]; after grinding in agate mortar for 30 minutes): amorphous state
